Experimental data from PMC12615485, “New dengue virus inhibitors targeting NS3-NS5 interaction identified by in silico screening” (Frontiers in Microbiology, 2025).
Like-named read-outs stand apart in the source and are kept apart here.

Columns and labels:
[1] = target: NS3-NS5 interaction (NS3 f.l. binding to coated 6His-NS5_270–900) (Dengue virus type 2, UniProt P14340); test: ELISA-based NS3-NS5 interaction assay; parameters: species or system DENV-2; settings: for IC50: analogues of hit 3, in-house synthesized hit 3 as control, 50% inhibition of NS3-NS5 binding in ELISA, read-out: In vitro activity IC50; for reduction of NS3-NS5 interaction: at the tested concentrations
Experimental: Nunc Maxisorp microplates (Thermo Fisher Scientific) were coated with 400 ng/well of 6His-NS5_270–900, or GST protein as a control, in PBS for 3 h at 37 °C and then blocked with 5% (wt/v) bovine serum albumin (BSA, Merck Life Science) in PBS overnight at 4 °C. Blocked wells were incubated at room temperature (RT) for 2 h with increasing amounts of NS3 f.l. or GST–NS3_172–618. 6His-NS5_270–900-coated plates were also incubated with increasing concentration of GST, as a control. After washing with PBS containing 0.3% Tween 20 (Fisher Scientific, Waltham, MA, United States), the NS3-NS5 interaction was detected by incubating the plates with the anti-NS3 monoclonal antibody (GT2811 clone, Genetex, Irvine, CA, United States) diluted 1:6,000 in PBS + 2% (v/v) FBS (Thermo Fisher Scientific) for 1 h at RT. The unbound primary antibody was removed by further washes with PBS + 0.3% Tween 20 and the secondary goat anti-mouse HRP-conjugated antibody (GenScript Biotech) at a dilution of 1:8,000 in PBS + 2% FBS was then added. After incubation for 1 h at RT and following washes, the colorimetric substrate 3,3′,5,5′-tetramethylbenzidine (TMB, SeraCare Life Sciences, Milford, MA, United States) was added to each well and absorbance was read at 450 nm by an ELISA plate reader (Tecan Infinite 200 PRO, Mannedorf, Switzerland).
To test the inhibitory effect of compounds on NS3-NS5 interaction, 6His-NS5_270–900-coated wells were incubated with a fixed amount of NS3 f.l. (200 ng) along with increasing concentrations of test compounds or DMSO as a control. To exclude non-specific inhibition of compounds due to colloidal aggregation, the inhibitory activities of compounds were tested in the presence or the absence of 0.002% Triton X-100 (Fisher Scientific), a condition which reverses and prevents the colloidal formation of organic molecules ([McGovern et al., 2003]). All the compound concentrations were tested at least in duplicate.

DENV-2 NGC strain = test: Plaque reduction assay (PRA) in Vero cells; assay type: cell-based; settings: best analogues of hit 3, in-house synthesized hit 3 as control; PRA in Vero cells, NGC strain; read-out: Antiviral activity EC50
Vero cells [2] = test: MTT cytotoxicity assay; settings: read-out: Cytotoxicity CC50; best analogues of hit 3, in-house synthesized hit 3 as control; MTT in Vero cells at 72 h
Vero cells [3] = test system: Vero cells

O=C(NNC(=S)Nc1ccc(Cl)cc1Cl)c1ccccc1O [Compound 51]
IC50 [1]: 97.2 ± 24.3 µM

COc1ccc(C(=O)NNC(=S)Nc2ccccc2)cc1 [Compound 52]
IC50 [1]: 167 ± 29 µM

O=C(NNC(=S)Nc1ccccc1)c1ccccc1O [Compound 53]
IC50 [1]: 82.7 ± 21.5 µM

CCOC(=O)c1ccc(NC(=S)NNC(=O)c2ccccc2O)cc1 [Compound 54]
IC50 [1]: 31 ± 18.3 µM

Cc1ccc(NC(=S)NNC(=O)c2ccc(C(F)(F)F)cc2)cc1 [Compound 55]
IC50 [1]: 118 ± 23 µM

COc1ccccc1C(=O)NNC(=S)Nc1ccc(C)cc1 [Compound 56]
IC50 [1]: 21.2 ± 3.4 µM

Cc1ccc(NC(=S)NNC(=O)c2ccccc2)cc1 [Compound 57]
IC50 [1]: 55.6 ± 22.7 µM

Cc1ccc(NC(=S)NNC(=O)c2ccccc2F)cc1 [Compound 58]
IC50 [1]: 21.3 ± 7.9 µM

Cc1ccc(NC(=S)NNC(=O)c2ccccc2C)cc1 [Compound 59]
IC50 [1]: 29 ± 6.9 µM

Cc1ccc(NC(=S)NNC(=O)c2ccc(C)cc2)cc1 [Compound 60]
IC50 [1]: 149 ± 21 µM

Cc1ccc(NC(=S)NNC(=O)c2cccc(O)c2)cc1 [Compound 61]
IC50 [1]: > 200 µM
reduction of NS3-NS5 interaction [1]: < 50%

Cc1ccc(NC(=S)NNC(=O)c2ccc(O)cc2)cc1 [Compound 62]
IC50 [1]: > 200 µM
reduction of NS3-NS5 interaction [1]: < 50%

Cc1ccc(NC(=S)NNC(=O)c2ccc(O)cc2O)cc1 [Compound 63]
IC50 [1]: 172 ± 31 µM

Cc1ccc(NC(=S)NNC(=O)c2ccccn2)cc1 [Compound 64]
EC50 (DENV-2 NGC strain): 2.1 ± 1.6 µM
CC50 (Vero cells [2]): 39.6 ± 10.2 µM

Cc1ccc(NC(=S)NNC(=O)c2cccs2)cc1 [Compound 65]
IC50 [1]: 64.9 ± 19.5 µM

CN(C)c1ccc(NC(=S)NNC(=O)c2ccccc2O)cc1 [Compound 66]
IC50 [1]: 12.5 ± 4.1 µM

O=C(NNC(=S)Nc1ccc([N+](=O)[O-])cc1)c1ccccc1O [Compound 67]
IC50 [1]: > 200 µM
reduction of NS3-NS5 interaction [1]: < 50%

Cc1ccc(NC(=S)NNC(=O)c2ccco2)cc1 [Compound 68]
IC50 [1]: 20.1 ± 7.5 µM

CN(C)c1ccc(NC(=S)NNC(=O)c2ccccn2)cc1 [Compound 69]
fold lower IC50 than hit 3 ([1]; IC50 of 1.0 μM versus 15.6 μM): 15 fold
EC50 (DENV-2 NGC strain): 12.4 ± 5.8 µM
CC50 (Vero cells [3]): 72 ± 17.2 µM
